The values that follow come from patent US20080299076A1, “Compunds and compositions that cause non-apoptotic cell death and uses thereof” (priority 2006, published 2008).

As a reminder, the pIC50 is the negative decadic logarithm of the IC50, by convention in mol/L. Higher therefore signals a low IC50.

Data set [1] can be described thus: Toxicity after injection in mice. Format: in vivo.
Experimental: In certain embodiments, erastin was formulated at 150 mg/kg in 10% DMSO, 20% Tween 80, 70% saline and 0.5 mL of this formulation was injected via IV twice per day for four days in 3 nude mice.
A short description of data set [2]: Stability in mouse plasma. The settings on record: after five hours. Format: in vitro ADME. The protocol:
(§1) The stability of erastin in mouse and human liver microsomes and in mouse and human plasma was assessed. In both human and mouse liver microsomes, after 1 hr, ˜30% of erastin was converted to its primary metabolite (the O-de-ethylated product). In both human and mouse plasma, only ˜10% of erastin was lost after five hours. Thus, erastin has sufficient metabolic and plasma stability to be tested in vivo in mice.

For a further data set, the system named is tumor cell lines. The experiment in a line: Dose-response of panel of tumor cell lines to erastin. Format: cell-based. How it is done: In certain aspects, the invention provides that erastin is lethal to tumor cells with activating mutations in proteins downstream of RAS proteins. Dose-response of 30 tumor cell lines to erastin was measured, and at least 50% inhibition of cell viability in 19 of the 30 tumor cell lines was formed. Numerous sarcoma-derived tumor cell lines were sensitive to erastin, consistent with the fact that erastin was discovered in an engineered tumor cell line created from human fibroblasts. Non-limiting examples include, HT1080 fibrosarcoma cells. HT1080 fibrosarcoma cells, which have a known activating mutation in NRAS, (Plattner, R. et al. Differential contribution of the ERK and JNK mitogen-activated protein kinase cascades to Ras transformation of HT1080 fibrosarcoma and DLD-1 colon carcinoma cells. Oncogene. 18: 1807-17 (1999)), were quite sensitive to erastin. In order to determine whether RAS-activated signaling was modulated in cell lines that respond to erastin, the phosphorylation status of ERK1/2 in 12 sarcoma cell lines with a range of sensitivities to erastin was evaluated. In certain aspects, the invention provides a non-zero correlation, such as for example, a correlation coefficient of 0.41, between ERK1/2 phosphorylation status and erastin sensitivity in these cell lines. […]

Data set [3] in a line: Stability in human liver microsomes. Type of data set: in vitro ADME. The settings on record: after 1 hr. The protocol:
as §1
Background: Liver microsomes are a subcellular fraction often used to study metabolism.

Data set [4] concerns BJ-TERT/LT/ST/RAS^V12 cells. Put plainly: Cell death, viable cells counted using a hemacytometer. Type of data set: cell-based, human. The settings on record: 13 μM erastin A1, 23 μM antimycin, 126 μM 2-methoxyestradiol or the combinations.
A further data set relates to Calu-1 cells. The experiment in a line: Sensitivity of Calu-1 lung carcinoma cells to erastin. The settings on record: Homo sapiens; Calu-1 lung carcinoma cells with activating KRAS mutation. Type of data set: cell-based. The protocol:
Erastin was discovered, e.g., in a screen for oncogenic-HRAS-selective lethal compounds. KRAS is more frequently mutated in human cancers than HRAS. Thus, whether erastin is selectively lethal to tumor cells harboring oncogenic KRAS was tested. Calu-1 is a lung carcinoma cell line (Calu-1) with an activating mutation in KRAS. In certain embodiments, Calu-1 cells were sensitive to erastin (IC50=5 μM). Two different lentiviral constructs were used to reduce expression of mutant KRAS.
(Left panel) Calu-1 cells that had been infected with lentiviruses expressing shRNAs targeting GFP (as a control) or KRAS (targeting 19 nucleotides starting at nucleotide 269 or 509) were seeded in 6-well plates, treated with erastin and viability measured using Trypan Blue exclusion on a Beckman Vi-Cell. Error bars represent one SD. (Right panel) Western blot showing KRAS knockdown in Calu-1 cells. Top band=actin, Bottom band=KRAS. Calu-1 cells were infected with nothing (left lane), or lentiviruses containing shRNA constructs targeting GFP or KRAS. For KRAS, the shRNA was designed to match 19 nucleotides starting at the indicated nt.

For data set [5], the system named is BJ-TERT/LT/ST/RAS^V12 cells. The experiment in a line: Alamar Blue viability assay. Type of data set: cell-based, human. How it is done:
(a) Calu-1 lung carcinoma cells harboring oncogenic KRAS were infected with lentivirus containing shRNAs targeting KRAS or GFP. Sequences of shRNAs are indicated by starting nucleotide (nt) in the KRAS mRNA coding sequence. Cells were treated with erastin and viability measured by Trypan Blue exclusion. (b) Knockdown of KRAS was confirmed by western blot. (c,d) A673 cells harboring oncogenic BRAF were infected with lentiviral shRNAs targeting BRAF exon 5 (c) or the 5′ UTR (d), luciferase (LUC) (c) or GFP (d). Cells were treated with erastin and viability measured using Alamar Blue (c) and Trypan Blue (d). (e) Knockdown of BRAF was confirmed by western blot. […] BJ-TERT/LT/ST/RAS^V12 cells were treated with erastin alone or in with a MEK inhibitor U0126 (20 μM), MEK inhibitor I (10 μM) or MEK 1/2 inhibitor (50 μM). After 48 h, viability was determined using Trypan Blue. (g) Structures of certain erastin and related analogs. (h) and (i) Dose-response curves were measured for erastin A3 and erastin B2 in BJ-TERT/LT/ST/RAS^V12 cells (black squares) or BJ-TERT cells (grey circles). (j) Calu-1 lung carcinoma cells harboring oncogenic KRAS were infected with lentivirus containing shRNAs targeting KRAS or GFP. Sequences of shRNAs are indicated by starting nucleotide (nt) in the KRAS mRNA coding sequence. Cells were treated with erastin and viability (y-axis) measured by Trypan Blue exclusion. Cells were treated with erastin for 24 hours, and percent inhibition of viability (y-axis) measured using Alamar Blue (k) and Trypan Blue (l). (m) Structures of erastin and related analogs. (n) Dose-response curves were measured for erastin A6, erastin B2, erastin A8 and erastin A9 in BJ-TERT/LT/ST/RAS^V12 cells (squares) or BJ-TERT cells (circles) using Alamar Blue.
Alamar Blue metabolism: 10% Alamar Blue was added to assay plates, which were then incubated for an additional 16 hours. Red fluorescence, resulting from reduction of Alamar Blue, was detected on a Victor3 platereader (ex: 530, em: 590).
Table 2. Activity of RAS-selective lethal compound erastin in tumor cell lines. IC50 values (ng/mL) are shown using the Alamar Blue viability assay. BJ engineered tumor cells express TERT, LT, ST, and oncogenic RAS. Isogenic RAS^V12 lacking cells are identical but lack HRAS^V12. BJ-DRD cells are derived from BJ cells and contain TERT, oncogenic RAS, a truncated from of p53 (p53DD) that disrupts the tetramerization of endogenous p53, a CDK4(R24C) mutant resistant to inhibition by p16INK4A and p151NK4B (the major negative regulators of CDK4) and cyclin D1. These latter protein substitute for LT. HCT-116, A549, Calu-1, and MIA PaCa-2 are tumor cells derived from cancers (colon, lung, lung and pancreatic, respectively) known to have activating mutations in RAS.
A general note: The colour change of resazurin is a common sign of viable cells or microbes.

Each structure is given as a SMILES string. pIC50: −log10 of the molar value.

Regarding `CCOc1ccccc1-n1c(C(C)N2CCN(C(=O)COc3ccc(Cl)cc3)CC2)nc2ccccc2c1=O` (stereo not shown) [erastin, 2-(1-{4-[2-(4-Chloro-phenoxy)-acetyl]-piperazin-1-yl}-ethyl)-3-(2-ethoxy-phenyl)-3H-quinazolin-4-one], the “Gross toxicity (body weight and behavior)” value in data set [1] (150 mg/kg in 10% DMSO, 20% Tween 80, 70% saline, IV twice per day for four days, nude mice) is “No gross toxicity”. In addition, in data set [1] (single dose IP in 100% DMSO up to 450 mg/kg), the Overt toxicity entry is reported as “no overt toxicity”. Also, the compound lost in data set [2] was ~10%. Moreover, the “number of cell lines with at least 50% inhibition of viability” value in the data set on tumor cell lines (of 29 tumor cell lines) came out at 18. Besides, the “number of cell lines with at least 50% inhibition of cell viability” value in the data set with tumor cell lines (of 30 tumor cell lines) is recorded as 19. For the same compound, the “converted to primary metabolite (O-de-ethylated product)” value in data set [3] was ~30%. Moreover, in data set [4], the “Cell death (%)” value was 100%. The compound further gave a pIC50 in the data set on Calu-1 cells of 5.30. In addition, the RAS-selective lethality result in data set [5] (HRAS^V12-expressing versus HRAS^V12-deficient cells) is given as “at least 16 fold”. In addition, in data set [5] (IC50 in BJ-TERT/LT/ST versus BJ-TERT/LT/ST/RAS^V12), the RAS selectivity is >16.
